Experimental data from PubChem BioAssay AID179 (DTP/NCI, 2004).
The source made the active and inactive calls.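 The calls were made as follows: active = compounds giving half or more protection of infected cells from virus-caused growth loss, again on retest; inactive = the rest.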 Where a SMILES comes first, the peptide text is derived from it. [ ]: non-standard residue; d: D form. The star is where a group is joined. ξ: configuration not given here. ξD = NC(CC(=O)O)C(=O)O; Boc = CC(C)(C)OC(=O)*; Aib = CC(C)(N)C(=O)O; OBn = c1ccc(CO*)cc1

System: CEM cells HIV-1 protection, formazan growth assay
Experiment: NCI AIDS Antiviral Assay
Conditions: for IC50: measured here: growth of uninfected CEM cells
In short: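 Screen of anti-HIV-1 activity in human CEM cells using a formazan-based growth measurement at five drug concentrations. Hits with 50% or greater protection were repeated, and confirmation required reproducible complete protection.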

| SMILES | EC50 [µM] | IC50 [µM] | outcome |
| --- | --- | --- | --- |
| CC1CCCOc2ccc(cc2)C=Nc2ccc(cc2)CCc2ccc(cc2)N=Cc2ccc(cc2)OCCC1 (stereo unspecified) | > 200 | > 200 |  |
| Brc1ncnc2c1ncn2C1CCCS1 (stereo unspecified) |  |  | inactive |
| C#CCNC(=O)ON1C(=O)CCC1=O | > 1260 | > 1260 |  |
| N=C(N)c1ncn(C2OC(CO)C(O)C2O)n1 (stereo unspecified) |  |  | inactive |
| COC(=O)CC[C@@H](NC(=O)C(C)NC(=O)COC1C(O)C(COC(=O)CCCCCCCCCCNC(=O)c2ccc([N+](=O)[O-])c3[nH]c4cc(Br)ccc4c(=O)c23)OC(OCc2ccccc2)C1NC(C)=O)C(N)=O (stereo partly specified) |  |  | inactive |
| CN(C)c1cc2c3c(c1)CCCN3CCC2 | > 200 | 11.5 |  |
| CCOC(=O)Nc1ccc2nc(-c3cscn3)[nH]c2c1 | > 457 | 1.66 |  |
| Clc1ccc2nc(-c3ccccc3)nc(Cl)c2c1 |  |  | inactive |
| COC1=CC(=O)c2ccccc2C1(CCC=C(C)C)C1=NC(C)(C)CO1 (stereo unspecified) |  |  | inactive |
| Nc1ccn(CCNCCn2cnc3nc(N)[nH]c(=O)c32)c(=O)n1 | > 8.32 | > 8.32 |  |
| COc1ccc(-c2ccccc2)cc1SSc1cc(-c2ccccc2)ccc1OC | > 200 | 178 |  |
| CCOC(=O)c1nnsc1NN=C(C)C | > 200 | > 200 |  |
| CC(C)(NO)/C(=N\O)c1ccco1 | > 200 | > 200 |  |
| Cn1c(=O)nc2n(-c3ccc(Cl)cc3)c3cc(Cl)ccc3nc-2c1=O |  |  | inactive |
| Cn1c(=O)c2c(nc(NCC[N+](C)(C)Cc3ccc(Cl)cc3)n2C)n(C)c1=O | > 295 | > 295 |  |
| CC(C)(C)OC(=O)NC(CC(=O)OCc1ccccc1)C(=O)NC(C)(C)C(N)=O (stereo unspecified) (Boc-[ξD](OBn)-[Aib]-NH2) | > 200 | > 200 |  |
| C=C(Br)CNC(=O)CCC(=O)NCC(=C)Br | > 200 | > 200 |  |
| COC(=O)C1CCCN1C(=O)OC(C)(C)C (stereo unspecified) | 57.5 | > 200 |  |
| O=P1(Oc2ccccc2)Nc2cc(Cl)ccc2S1 (stereo unspecified) | > 45.7 | 22.4 |  |
| COC(OC)c1cc2c(cc1C(=O)[C@@]13CCC[C@@H]1NC(=O)O3)OCO2 |  |  | inactive |
| CS(=O)(=O)O/N=c1/cc(-c2ccccc2)oc2ccccc12 | > 200 | > 200 |  |
| COC(=O)c1cc(C(=CCCc2ccccc2)c2cc(Br)c(OC)c(C(=O)OC)c2)cc(Br)c1OC | > 200 | 11.2 |  |

| SMILES | EC50 [µM] | IC50 [µM] | outcome |
| --- | --- | --- | --- |
| O=C(Nc1ccccc1)Nc1ccc([N+](=O)[O-])cn1 | > 200 | > 200 |  |
| COc1ccc(/C=C2\CCC(C)C3=C2N=c2s/c(=C/c4cccc(Br)c4)c(=O)n2C3c2ccc(OC)c(OC)c2)cc1OC (stereo unspecified) | > 50.1 | > 50.1 |  |
| O=S1(=O)C(c2ccc(F)cc2)=C(O)c2cc3ccccc3nc21 |  |  | inactive |
| CN(NC(=O)/C(=C/C=C/c1ccccc1)NC(=O)c1ccccc1)C1=C(Cl)C(=O)[N+](c2ccccc2)=CC1 | > 200 | 35.5 |  |
| O=C(c1cccc(OCc2ccccc2)c1OCc1ccccc1)N1CCSC1=S | > 200 | 9.12 |  |
| Cn1ccc2c(C(=O)c3ccccc3)cccc2c1=O |  |  | inactive |
| N#C/C(C(=O)Nc1ccccc1)=C(/N)N1CCOCC1 | > 200 | > 200 |  |
| O=c1oc(C(C(F)(F)F)C(F)(F)F)nc2ccccc12 | > 200 | > 200 |  |
| CCCNP(=S)(NCCC)NCCC | > 200 | > 200 |  |
| COc1c2occc2c(N=Cc2ccncc2)c2ccc(=O)oc12 | > 39.8 | > 39.8 |  |
| C[P+](Cc1ccccc1)(c1ccccc1)c1ccccc1 | 0.0631 | 14.5 |  |
| OCc1ncccc1O | > 200 | > 200 |  |
| CCC12C=CCN3CC[C@@]4(c5cc([C@@]6(C(=O)OC)CC7CN(CCc8c6[nH]c6ccccc86)C[C@](O)(CC)C7)c(OC)cc5N(C)[C@H]4[C@]4(OCOC4=O)[C@@H]1O)C32 (stereo partly specified) |  |  | inactive |
| C/C(CC(=O)NC1=CC=C(NC(=O)C/C(C)=N\Nc2ccccc2)CC1)=N/Nc1ccccc1 | > 56.2 | > 56.2 |  |
| O=C(O)CC1OCC=C2CN3CCC45C6=CC(=O)C(=O)C([N+](=O)[O-])=C6NC4C1C2CC35 (stereo unspecified) | > 200 | 28.2 |  |
| CCOP(=O)(OCC)C(Nc1ccc(Br)cc1)c1cccc([N+](=O)[O-])c1 (stereo unspecified) |  |  | inactive |
| COc1cc2c(cc1OC)C13CCN4CC5CCOC6CC(=O)N2C1C6C5CC43 (stereo unspecified) | > 200 | > 200 |  |
| CC(C)c1ccc(/C=C/c2cc(C(=O)NNC(=O)NC3CCCCC3)nc(=S)[nH]2)cc1 | > 6.17 | > 6.17 |  |
| CC(=O)/C(C=Nc1c(C)n(C)n(C)c1=O)=C(/O)c1ccccc1 | > 200 | 89.1 |  |
| Cc1cc(=O)oc2c3c(ccc12)OC(C)(C)[C@H](OC(=O)C12CCC(C)(C(=O)O1)C2(C)C)[C@@H]3OC(=O)C12CCC(C)(C(=O)O1)C2(C)C (stereo partly specified) | 0.0759 | > 200 |  |
| Cn1c2c(c(=O)n(C)c1=O)C(C(=O)O)CC(=O)N2 (stereo unspecified) | > 200 | 170 |  |
| CN(C)CCCNC(=O)c1cc(NC(=O)c2cc(NC(=O)[C@H]3C[C@@H]3C(=O)Nc3cc(C(=O)Nc4cc(C(=O)NCCCN(C)C)n(C)c4)n(C)c3)cn2C)cn1C |  |  | inactive |

| SMILES | EC50 [µM] | IC50 [µM] | outcome |
| --- | --- | --- | --- |
| CCOC(=O)C(C)NC(=O)N(C)C12CC3CC(CC(C3)C1)C2 (stereo unspecified) | > 200 | 151 |  |
| CCOC(=O)c1nc2c(OC)nn(O)cc-2c1Br | > 794 | > 794 |  |
| C[C@@H]1C[C@H]2[C@@H]3CCC4=CC(=O)C=C[C@]4(C)[C@@]3(F)[C@@H](O)C[C@]2(C)[C@H]1O |  |  | inactive |
| Cc1cc(S(=O)(=O)Nc2nc(N)nc(N3CCCCC3)n2)c(S)cc1Cl | > 200 | > 200 |  |
| NCCCOCC(=O)O |  |  | inactive |
| O=c1c2cc(-c3ccccc3)cnc2sn1-c1ccc([N+](=O)[O-])cc1 | > 200 | 39.8 |  |
| OC1CSCCCSCC(O)CSCCCSC1 (stereo unspecified) | > 759 | 389 |  |
| COc1c(OCc2ccccc2)c(OCc2ccccc2)cc(CO)c1-c1c(CO)cc(OCc2ccccc2)c(OCc2ccccc2)c1OC | > 2.88 | > 2.88 |  |
| Cc1ccc(C)c(NC(=O)C(=O)CC(=O)c2cccc3ccccc23)c1 | > 105 | > 105 |  |
| O=[N+]([O-])/C(C(Cl)=C(Cl)Cl)=C(/Cl)SCc1ccccc1 | > 200 | 11 |  |
| COc1cc2c[n+](C)c3c4ccccc4ccc3c2cc1OC (tested in a mixture with another compound) | > 170 | 6.03 |  |
| N#CCCN(CCC#N)c1ccc(/C=C2\N=C(COc3ccc(Cl)cc3Cl)OC2=O)cc1 | > 537 | 490 |  |
| O=P(c1ccccc1)(c1ccccc1)C1CC=C(c2ccccc2)C2(CCCC2)C1 (stereo unspecified) | > 8.71 | > 8.71 |  |
| COC(=O)C1=C2CCC(=O)[C@@]2(C)C(OC(C)=O)C=CC1 (stereo partly specified) |  |  | inactive |
| O=C(C(O)c1cn(Cc2ccccc2)c2ccccc12)N1CCCCC1 (stereo unspecified) |  |  | inactive |
| O=C(N1CC2(CN(C(=O)C(F)(F)F)CC3(C1)OCCO3)OCCO2)C(F)(F)F | > 200 | > 200 |  |
| NCC1OC(n2cnc3c(N)ncnc32)CC1O (stereo unspecified) | > 200 | > 200 |  |
| CCOC(=O)C1C=CC(C)C2CCCCC12N1CCCC1 (stereo unspecified) |  |  | inactive |
| C=CC1(C)CCC(C(C)C(=O)C(C=C(C)C)OC(C)=O)C12C(=O)Oc1ccccc1C2=O (stereo unspecified) | > 30.9 | 29.5 |  |
| CCCCCCCCCCCCCCCCOP(=O)(O)OCCC=C(c1cc(Cl)c(O)c(C(=O)O)c1)c1cc(Cl)c(O)c(C(=O)O)c1 | > 145 | 93.3 |  |
| CC1ON2CCCC2[C@H]1C(=O)N1C2CC3CCC2(CS1(=O)=O)C3(C)C (stereo partly specified) | > 200 | > 200 |  |

| SMILES | EC50 [µM] | IC50 [µM] | outcome |
| --- | --- | --- | --- |
| Cc1ccc(/C=N/NS(=O)(=O)c2ccccc2)c(C)c1 |  |  | inactive |
| Cn1nc2c(c1N)Cc1c(nn(C)c1N)-c1ccccc1-2 | > 200 | 191 |  |
| C=CCOc1ccc(/C(N=Nc2ccc(C)cc2)=N/NC(=O)c2ccccc2)cc1OC | > 200 | 10 |  |
| CCN(CC)c1ccc2cc(C(=O)Nc3ccccc3)c(=N)oc2c1 | > 100 | > 100 |  |
| O=c1c(SCc2ccc(F)cc2)c(SCc2ccc(F)cc2)cnn1-c1ccccc1 | > 15.8 | > 15.8 |  |
| N#C/C(C(=O)Nc1ccc(Cl)cc1)=C(/N)N1CCOCC1 | > 200 | > 200 |  |
| C/C(=C\CNc1ncnc2c1ncn2C1CCCCO1)COP(=O)(O)O (stereo unspecified) |  |  | inactive |
| Cn1c(=O)c(Br)c(C=O)n(CCO[N+](=O)[O-])c1=O | > 200 | 1.78 |  |
| Cc1c(CC#N)cc(C)c2c3c([nH]c12)-c1ccccc1CC3 | > 26.3 | 19.1 |  |
| O=S(=O)(O)c1c(Cl)c(Cl)c(O)c2ncccc12 | > 200 | 1.17 |  |
| O=c1oc2ccccc2cc1F | > 302 | > 302 |  |
| C[N+](C)(C)CC1CCCC(C[N+](C)(C)C)C1O (stereo unspecified) |  |  | inactive |
| CN(/N=C/c1ccccn1)C1=NCCCN1 | > 200 | > 200 |  |
| Cc1ccc(-n2c(=O)c3nn4c(=O)n(-c5ccc(C)cc5)c(=O)c4nn3c2=O)cc1 | > 200 | > 200 |  |
| CCOc1cccc2sc(N)nc12 |  |  | inactive |
| CC(C)(C)c1ccc(Oc2ccc3c(c2)-c2nc-3nc3[nH]c(nc4nc(nc5[nH]c(n2)c2ccc(Oc6ccc(C(C)(C)C)cc6C(C)(C)C)cc52)-c2cc(Oc5ccc(C(C)(C)C)cc5C(C)(C)C)ccc2-4)c2ccc(Oc4ccc(C(C)(C)C)cc4C(C)(C)C)cc32)c(C(C)(C)C)c1 | > 9.77 | > 9.77 |  |
| CCOC(=O)C1C(NC(N)=O)N(Cc2ccccc2)C(=O)N1Cc1ccccc1 (stereo unspecified) | > 447 | > 447 |  |
| CC(=O)C(C(=O)C(C)(C)C)C(=O)C(C)(C)C | > 200 | > 200 |  |
| C=CC(C)(C)C1Oc2cc(O)ccc2C(=O)C1c1ccc(OC)c(OC)c1O (stereo unspecified) | > 200 | 3.09 |  |
| CC1=NN(C(=O)CC(=O)Nc2ccccc2Cl)C(=O)C1N=Nc1ccc(C(=O)O)cc1 (stereo unspecified) | > 200 | 81.3 |  |
